Data set [1] has as its target T1, acetylcholinesterase (AChE) (Homo sapiens, UniProt P22303).
T1 construct: host or cells: CHO cells
Nature of the data set: biochemical. The data set is classed as biochemical. As for the experimental part:
The protein source was Human (recombinant) Expressed in CHO cells. The enzymatic activity was studied. The method employed was the detection of conversion of acetylthiocholine to thiocholine using DTNB. The substrate employed was Acetylthiocholine.
Enzyme and test compound were pre-incubated for 15 minutes at room temp before substrate addition. Acetylthiocholine and DTNB (5,5′-dithiobis-(2-nitrobenzoic acid)) were added and incubated at room temperature for 30 minutes. Signal was detected by measuring absorbance at 405 nm.
Percentage inhibition was calculated using the following formula: […]

For another data set, the target named is T2, human FOXO1 (Homo sapiens, UniProt Q12778).
T2 construct: expressed in transfected cells; host or cells: HEK293
Nature of the data set: FOXO1 transcriptional reporter assay (insulin response element firefly luciferase / Renilla) in HEK293 cells. The data set is classed as cell-based. The conditions noted are these: HEK293 cells transfected with human FOXO1, 24 hours, class combines IC50 and maximal inhibition; read-out: IC50 (active range). As for the experimental part: The activities of FOXO1 inhibitors were determined by a transcriptional reporter assay. HEK293 cells were plated onto 96-well plates with moat at 20000 cells per well in Eagle's Minimum Essential Medium (EMEM) containing 1% fetal bovine serum, and incubated overnight at 37° C. and 5% CO2. […] Compounds were then added at varying final concentrations ranging from 50 μM to 1 nM, with final DMSO concentration of 0.5% in each well. Duplicate wells were included for each treatment condition. Cells were incubated for 24 hours at 37° C. and 5% CO2. Luciferase activities in each well were measured using Dual-Glo Luciferase Assay System (Promega) according to manufacturer's protocol and a plate reader suitable for luminescence detection. Firefly luciferase activity was divided by Renilla luciferase activity to calculate a ratio for each well. The ratio in wells containing cells transfected with all 3 plasmids listed above and receiving only DMSO without compound addition was set to 100%. The ratio in wells containing cells transfected with plasmids (1), (3), and 5 ng of pcDNA3.1 containing the open reading frame of red fluorescent protein (instead of human FOXO1) and treated with DMSO only was set to 0%. The ratio in each well receiving compound treatment was normalized and expressed as a percentage. Data were fit by 4-parameter logistic regression to determine IC50 and maximal inhibition values. Each compound was tested in a minimum of 2 independent experiments.
(A reporter such as luciferase makes a cellular process visible.)

A short description of data set [2]: Metabolic stability in human hepatocytes. The conditions noted are these: for % remaining at 90 min: Human hepatocyte, 0.3 μM; for hepatocyte CLint at 1.5 h, 0.3 µM: human, hepatocytes (cryopreserved).
Protocol: An in vitro system comprising human Hepatocytes was employed. The incubation conditions and sampling time point of test article and positive control were as follows. Test articles (0.3 μM) and positive controls (verapamil) were incubated in a 0.2mL volume in 96-well format. Stock solutions were received at 10 mM in DMSO and the Final DMSO % in incubation was 0.01%. […] Incubation plates were shaken on an automated orbital shaker at 600 rpm. Incubation time points were: 0, 15, 30, 60, 90 minutes.
Following this pre-incubation period, the test compound (DMSO stock solution) was added to the incubation plate, which was mixed to initiate the incubation. The reaction plate was sampled (20 μL aliquot) at the pre-determined incubation time points, the sample quenched with 80 μL of Stop solution with internal standard (Acetonitrile with 0.1% (v/v) formic acid containing 100 nM labetalol, 20 nM imipramine, and 200 nM diclofenac) and the samples were mixed well. After quenching the reaction, the reaction mixture was centrifuged and the samples were submitted for LC-MS/MS analysis. Depletion rate (kdep, min^−1) and % compound remaining was calculated by peak area ratio (PAR) with internal standard at each time point relative to time 0 min. The estimation of Clint(Unscaled) (in μl/min/10^6 cells) was performed with the following equation:
The nature of data set [3]: Metabolic stability in mouse microsomes. The data set is classed as in vitro ADME. The conditions noted are these: for microsomal CLint at 0.75 h, 0.3 μM: CD-1, liver microsomes, pH 7.4, in vitro intrinsic clearance; for microsomal CLint at 0.75 h, 0.3 μM / % remaining at 45 min: Mouse microsome, 0.3 μM; for metabolic stability compared with Compound 10 (Langlet et al.): mouse microsomes, and/or human hepatocytes, in words. A general note: Liver microsomes are vesicles of endoplasmic reticulum, rich in cytochrome P450 enzymes.

A short description of data set [4]: Metabolic stability in dog microsomes. The note with it: for % remaining at 45 min: Dog microsome; for metabolic stability compared with Compound 9 (Langlet et al.): dog and/or human microsomes, in words.
Data set [5] in a line: Metabolic stability in human microsomes. The note with it: for % remaining at 45 min: Human microsome.
Where [6] appears, read: selectivity studies, Table 4, read-out: AChE IC50.
Setting [7] is: Human recombinant AChE expressed in CHO cells, read-out: AChE Inhibitor IC50.

SMILES strings stand for the structures. Like-named read-outs stand apart in the source and are kept apart here. Marks after values point to notes of the source that are not given here.

T2 sequence (Q12778 whole entry): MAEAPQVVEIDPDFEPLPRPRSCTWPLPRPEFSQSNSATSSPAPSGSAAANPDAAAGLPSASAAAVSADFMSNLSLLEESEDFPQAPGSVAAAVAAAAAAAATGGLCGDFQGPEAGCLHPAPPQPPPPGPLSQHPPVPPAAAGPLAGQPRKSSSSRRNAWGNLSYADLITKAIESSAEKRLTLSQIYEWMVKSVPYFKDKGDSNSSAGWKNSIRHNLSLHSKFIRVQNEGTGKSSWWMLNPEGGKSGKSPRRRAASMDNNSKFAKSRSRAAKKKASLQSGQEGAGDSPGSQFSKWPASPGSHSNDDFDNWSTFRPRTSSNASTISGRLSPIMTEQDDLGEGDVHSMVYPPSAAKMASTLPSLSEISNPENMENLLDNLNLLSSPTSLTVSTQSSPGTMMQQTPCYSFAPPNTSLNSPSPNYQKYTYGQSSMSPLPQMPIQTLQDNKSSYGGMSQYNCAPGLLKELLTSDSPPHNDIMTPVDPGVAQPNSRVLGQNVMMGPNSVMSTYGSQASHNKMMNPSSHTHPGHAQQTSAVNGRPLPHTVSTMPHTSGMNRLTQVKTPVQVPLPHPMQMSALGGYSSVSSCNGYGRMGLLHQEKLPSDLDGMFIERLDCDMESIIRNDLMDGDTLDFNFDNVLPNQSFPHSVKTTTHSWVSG
T1 sequence (P22303 32-614): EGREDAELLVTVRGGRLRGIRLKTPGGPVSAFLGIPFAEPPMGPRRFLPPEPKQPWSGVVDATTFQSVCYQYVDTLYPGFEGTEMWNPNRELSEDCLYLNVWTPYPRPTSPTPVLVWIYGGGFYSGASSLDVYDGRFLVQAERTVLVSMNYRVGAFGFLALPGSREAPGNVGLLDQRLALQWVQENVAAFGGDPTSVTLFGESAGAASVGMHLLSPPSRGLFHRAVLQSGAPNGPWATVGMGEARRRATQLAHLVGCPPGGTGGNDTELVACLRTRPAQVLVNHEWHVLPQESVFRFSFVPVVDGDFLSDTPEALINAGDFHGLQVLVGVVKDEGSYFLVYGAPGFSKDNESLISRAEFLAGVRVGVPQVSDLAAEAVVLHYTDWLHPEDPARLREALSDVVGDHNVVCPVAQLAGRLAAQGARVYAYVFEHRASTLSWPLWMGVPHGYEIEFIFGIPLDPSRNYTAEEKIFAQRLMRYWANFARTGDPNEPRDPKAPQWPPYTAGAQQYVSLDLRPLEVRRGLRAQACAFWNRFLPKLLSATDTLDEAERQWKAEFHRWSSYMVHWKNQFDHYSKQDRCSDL

Broadly, the IC50 is the midpoint of a concentration-inhibition curve. One may read the hepatocyte CLint as the rate of metabolic loss divided by the concentration. A low value points to slow turnover. A word on the microsomal CLint: it is a measure of how fast metabolising enzymes remove a compound, apart from limits set by blood flow. A high value points to rapid turnover. Take `CN1CCN(c2ccc(C(=O)Nc3cc(-c4nc5ccccc5[nH]4)n[nH]3)cc2)CC1` [Compound 2, reference compound]: the concentration for half-maximal inhibition (IC50) in data set [1] (setting [6]) came out at 1.71 µM. In addition, the IC50 at human FOXO1 was under 0.05 µM. Further, in data set [2], the “% remaining at 90 min” value is on record as 22% and the hepatocyte CLint at 1.5 h, 0.3 µM came to 18 µL/min/1e6 cells. Also, in data set [3], the microsomal CLint at 0.75 h, 0.3 μM stood at 206 µL/min/mg and the “% remaining at 45 min” value is recorded as 10%.

Turning to `CN1CCC(c2ccc(C(=O)Nc3cc(-c4nc5ccccc5[nH]4)n[nH]3)cc2)CC1` [Compound 42], the 50% inhibitory concentration (IC50) on human FOXO1 is under 1 µM.

As for `COc1ccc(C(=O)Nc2cc(-c3nc4cc(C(F)(F)F)ccc4[nH]3)[nH]n2)cc1Cl` [Compound 86], the 50% inhibitory concentration (IC50) on human FOXO1 was under 1 µM.

Consider `O=C(Nc1cc(-c2nc3ccccc3[nH]2)n[nH]1)c1ccc(O)c(Cl)c1` [Compound 24], for which the “% remaining at 45 min” value in data set [4] amounted to 88%; in data set [5] it was 93%. For the same compound, the “metabolic stability compared with Compound 9 (Langlet et al.)” value in data set [4] is given as “significantly more stable”. The microsomal CLint at 0.3 μM in data set [4] (dog, microsomes, pH 7.4) is under 20 µL/min/mg; in data set [5] (human, microsomes, pH 7.4), under 20 µL/min/mg.

Regarding `COc1ccc(C(=O)Nc2cc(-c3nc4ccccc4[nH]3)n[nH]2)cc1Cl` [Compound 1, reference compound], the “% remaining at 45 min” value in data set [4] is 12%; in data set [5], 3.2%. Further, the microsomal CLint at 0.75 h, 0.3 μM was determined as 185 µL/min/mg in data set [4] (dog, microsomes, pH 7.4) and 306 µL/min/mg in data set [5] (human, microsomes, pH 7.4).

In the case of `COc1cc(C(=O)Nc2cc(-c3nc4ccccc4[nH]3)n[nH]2)ccc1Cl` [Compound 20], the “% remaining at 45 min” value in data set [4] was 53%; in data set [5], 52%. Besides, the “metabolic stability compared with Compound 9 (Langlet et al.)” value in data set [4] was “significantly more stable”. Further, the intrinsic metabolic clearance (microsomal CLint) at 0.75 h, 0.3 μM in data set [4] (dog, microsomes, pH 7.4) is 58 µL/min/mg; in data set [5] (human, microsomes, pH 7.4), 57 µL/min/mg.

For `COc1ccc(C(=O)Nc2cc(-c3nc4c(F)cccc4[nH]3)[nH]n2)cc1Cl` [Compound 73], the entries for the “% remaining at 45 min” value in data set [4] and in data set [5] were 31% and 13%, respectively. Moreover, in data set [4], the “metabolic stability compared with Compound 9 (Langlet et al.)” value is on record as “significantly more stable”. For the same compound, the intrinsic clearance (microsomal CLint) at 0.75 h, 0.3 μM came to 104 µL/min/mg in data set [4] (dog, microsomes, pH 7.4) and 184 µL/min/mg in data set [5] (human, microsomes, pH 7.4).

Regarding `COc1ccc(C(=O)Nc2cc(-c3nc4c(C(F)(F)F)cccc4[nH]3)[nH]n2)cc1Cl` [Compound 85], the concentration for half-maximal inhibition (IC50) on human FOXO1 was under 1 µM.

`O=C(Nc1cc(-c2nc3ccccc3[nH]2)n[nH]1)c1ccc(N2CCNCC2)cc1` [Compound 36]: in data set [1] (setting [7]), the IC50 was over 10 µM. In data set [2], the “% remaining at 90 min” value was 110 * % and the hepatocyte CLint at 1.5 h, 0.3 µM was 2.6 µL/min/1e6 cells. In data set [3], the microsomal CLint at 0.75 h, 0.3 μM is 41 µL/min/mg; the “% remaining at 45 min” value is reported as 68%; the “metabolic stability compared with Compound 10 (Langlet et al.)” value is “significantly more stable”.

In the case of `COc1ccc(C(=O)N(C)c2cc(-c3nc4ccccc4[nH]3)n[nH]2)cc1Cl` [Compound 37], the IC50 in data set [1] (setting [6]) is over 10 µM.

In the case of `COc1ccc(C(=O)Nc2cc(-c3nc4cc(OC(F)(F)F)ccc4[nH]3)[nH]n2)cc1Cl` [Compound 84], the concentration for half-maximal inhibition (IC50) at human FOXO1 was 1 to 10 µM.

Regarding `O=C(Nc1cc(-c2nc3ccccc3[nH]2)[nH]n1)c1ccc(N2CCOCC2)cc1` [Compound 67], the IC50 in data set [1] (setting [7]) is over 10 µM. For the same compound, in data set [3], the microsomal CLint at 0.75 h, 0.3 μM was determined as 52 µL/min/mg; the “% remaining at 45 min” value stood at 58%; the “metabolic stability compared with Compound 10 (Langlet et al.)” value was “significantly more stable”.

Turning to `CC(=O)Nc1cc(-c2nc3ccccc3[nH]2)n[nH]1` [Compound 29], on human FOXO1, the IC50 was over 10 µM.

Regarding `CC(=O)N1CCN(c2ccc(C(=O)Nc3cc(-c4nc5ccccc5[nH]4)n[nH]3)cc2)CC1` [Compound 35], the concentration for half-maximal inhibition (IC50) at human FOXO1 was under 1 µM. In addition, in data set [3], the intrinsic metabolic clearance (microsomal CLint) at 0.75 h, 0.3 μM came out at 70 µL/min/mg; the “% remaining at 45 min” value stood at 44%; the “metabolic stability compared with Compound 10 (Langlet et al.)” value is on record as “significantly more stable”.

As to `Nc1cc(-c2nc3ccccc3[nH]2)n[nH]1` [Compound 32], the IC50 on human FOXO1 is over 10 µM.

For the origin of these results see patent US20220185797A1, “SELECTIVE FOXO INHIBITORS FOR TREATMENT OF DIABETES AND OTHER DISORDERS RELATED TO IMPAIRED PANCREATIC FUNCTION” (THE TRUSTEES OF COLUMBIA UNIVERSITYIN THE CITY OF NEW YORK, priority 2019, published 2022).
